Laboratory results taken from patent US20110257146A1, “Method of Treating Kcnq Related Disorders Using Organozinc Compounds” (The johns Hopkins University, priority 2006, published 2011).
Read-outs that look alike come from different tables or passages of the source.

What was measured:
KCNQ2 [1] = target: T1, KCNQ2 (Rattus norvegicus, UniProt O88943); test: Whole-cell voltage clamp of CHO cells expressing KCNQ2; assay type: cell-based; parameters: expressed in transfected cells; host or cells: CHO cells; conditions: for effect on KCNQ2 current amplitude of metal salt added to sodium pyrithione perfusion: metal salt (ZnSO4 10 μM) supplemented to 20 μM sodium pyrithione
Method: Cell culture and transient transfection—Chinese Hamster Ovary (CHO) cells were grown in 50/50 DMEM/F12 (Cellgro) with 10% FBS (Gibco), 100 U/ml penicillin (Cellgro), 100 μg/ml streptomycin (Cellgro) and 2 mM L-glutamine (Gibco). At 24 hours before transfection, cells were split and plated in 60 mm dishes and were transfected with Lipofectamine2000™ reagent (Invitrogen) according to the manufacturer's instruction. At 24 hours after transfection, cells were split and re-plated onto coverslips coated with poly-L-lysine (Sigma). Plasmid expressing CD4 cDNA as a marker was cotransfected with the channel cDNAs of hKCNQ1 (from Dr. Michael Sanguinetti), hKCNQ4 (from Dr. Vitya Vardanyan), rKCNQ2, rKCNQ3, and hKCNQ5 (from Drs. David McKinnon, Mark Shapiro, and Thomas Jentsch). Prior to recording, anti-CD4 Dynabeads (Dynal. Biotech. Inc.) were added into the medium to allow for identification of the transfected cells. Stable lines expressing Kv2.1, hERG, and Kv4.2 were generated by standard protocols using pcDNA3.1 and maintained at complete medium supplemented with 500 μg/ml G418. The N-type calcium channel stable line was a kind gift from Drs. Diane Lipscombe and David Yue.
(§1) Electrophysiological Recording—Standard whole-cell recording was used. Pipettes were pulled from borosilicate glass capillaries (TW150-4, World Precision Instruments, Sarasota, Fla.). When filled with the intracellular solution, the pipettes have resistances of […]. During the recording, constant perfusion of extracellular solution was maintained using a BPS perfusion system (ALA, Westbury, N.Y.). Pipette solution contained (mM): KCl 145, MgCl2 1, EGTA 5, HEPES 10, MgATP 5 (pH 7.3); extracellular solution contained (mM): NaCl 140, KCl 3, CaCl2 2, MgCl2 1.5, HEPES 10, glucose 10 (pH 7.4). Current and voltage were recorded using an Axopatch-200A amplifier, filtered at 1 kHz and digitized using a DigiData 1322A with pClamp 9.2 software (Axon Instruments, Foster City, Calif.). Series resistance compensation was also used and set to 60-80%.
Data and Statistical Analysis—Patch-clamp data were preprocessed using Clampfit 9.2 (Axon Instruments, Foster City, Calif.) and then analyzed in Origin 7 (OriginLab, Northampton, Mass.). The activation curve was fitted by the Boltzmann equation: G=(Gmax−Gmin)/[1+exp[(V−V1/2)/S]]+Gmin, where Gmax is the maximum conductance, Gmin is the minimum conductance, V1/2 is the voltage for half of the total numbers of channels to open, and S is the slope factor. The dose response curve was fitted by the Hill equation: E=Emax/(1+(EC50/C)^P), where Emax is the maximum response, C is the drug concentration, EC50 is the drug concentration producing half of the maximum response, and P is the Hill coefficient. The deactivation trace was fitted by the standard exponential equation: I(t)=ΣIi*exp(−t/τi), where I is the current, t is the time and τ is the time constant. Data are presented as means±SE. Significance was estimated using paired two-tailed Student's t-test.

[2] = In vivo Geller conflict test for anxiolytics; parameters: species or system rats; conditions: positive control
Method: In the Geller conflict test (see, e.g., Geller & Seifter, Psychophamracologia 1:482-492 (1960: Pollard & Howard, Psychopharmacology 62:117-121 (1979)), rats are trained to press a lever to receive food pellets during daily 1 hour sessions. The sessions are divided into punished and unpunished phases. During the four, three-minute punished periods, a light signals that each lever press will produce both a pellet and a foot shock (punishment), which reduces lever pressing. The number of punished lever presses on test days (when test compound is administered) is compared to the mean on baseline days. The positive control, chlordiazepoxide, increases punished lever pressing by >50%. A compound that produces an increase of approximately 40% or greater is generally considered to be of interest as a rapid-onset anxiolytic.
A compound with selective KCNQ1 channel opening activity increases punished responding in a dose-dependent manner. The increase in punished responding is statistically significant (paired t-test p<0.05) at 10, 17, 30, and 56 mg/kg PO with increases of 40% or greater at 30 and 56 mg/kg.

KCNQ2 [3] = target: T1, KCNQ2; test: Single channel outside-out patch recording of KCNQ2; assay type: cell-based; parameters: expressed in transfected cells; host or cells: CHO cells; conditions: 50 μM linopirdine
Method: For single channel recording procedure, outside-out patch recording was used. The pipettes had resistances of 7-15 MΩ when filled with the intracellular solution of the following composition (mM): KCl 145, MgCl2 1, EGTA 5, HEPES 10, MgATP 5 (pH 7.3). Extracellular solution contained (mM): NaCl 150, KCl 5, CaCl2 2, MgCl2 1, HEPES 10, glucose 10 (pH 7.4). Current and voltage were recorded using an Axopatch-200B amplifier, sample at 4 kHz and filtered at 200 Hz, and digitized using a DigiData 1322A with pClamp 9.2 software (Axon Instruments, Foster City, Calif.).
The open probability (Po) and single channel current (i) were calculated by fitting all-point histograms with single- or multi-Gaussian curves. The ratio of the area under the fitted ‘open’ Gaussian to the total area under the entire Gaussian was taken as Po, and the difference between the fitted “closed” and “open” peaks was taken as i, single channel conductance (γ) was calculated by the equation: γ=i/(V−V5).

hippocampal neurons = test: Membrane potential and elicited action potentials of isolated hippocampal neurons; assay type: cell-based, rat; conditions: 15 μM linopirdine added after 10 μM ZnPy
Method: FIG. 10. ZnPy potentiation of native M-current. A. M current recorded from an isolated rat dorsal root ganglion neuron, Vh was −60 mV, stepped to −20 mV, followed by a step to −50 mV, and stepped back to −20 mV. B. Histograms show M-current amplitudes in the presence and absence of 10 μM ZnPy (n=10, * p<0.001). M-current amplitudes were measured by fitting the IM relaxation with an exponential equation. The recording bath solution includes 1 μM TTX, 0.2 mM TEA, 1 mM 4-AP, 50 μM CNQX, and 10 μM bicuculline. C. Membrane potential of an isolated hippocampal neuron was monitored when 10 μM ZnPy was applied in bath solution followed by the addition of 15 μM linopirdine. D. Action potentials elicited by 200 pA current injection to a patched hippocampal neuron. The ZnPy treatments are as indicated.
Neuron Culture—Dorsal root ganglia (DRG) was collected from fourteen-day-old CD rat and incubated in collagenase (sigma, 500 U/ml, 15 min) and then trypsin (Sigma, 1 mg/ml, 30 min) at 37° C. Single DRG neurons were isolated by mechanical trituration with a fire-polished glass Pasteur pipette. Hippocampal tissue was dissected out from CD rat postnatal day 0. The tissue was digested with papain (Worthington Biochem, 20 U/ml, 30 min) and resuspended into single cells. The single-cell suspension was plated onto a monolayer of glial cells that were growing on coated cover slips. Cytosine-1-D-arabinofuranoside at 5 μM was added into the culture medium 24-48 hours later to arrest glial cell proliferation. The culture medium consisted of Neurobasal™ medium with B-27 supplement (Gibco), penicillin/streptomycin and 2 mM L-glutamine. All cells were maintained at 37° C. with 5% CO2 prior to recording.
Electrophysiological Recording—Standard whole-cell recording was used. Pipettes were pulled from borosilicate glass capillaries (TW150-4, World Precision Instruments, Sarasota, Fla.). […] Current and voltage were recorded using an Axopatch-200A amplifier, filtered at 1 kHz and digitized using a DigiData 1322A with pClamp 9.2 software (Axon Instruments, Foster City, Calif.). […]

TRPM8 = TRPM8 (Homo sapiens, UniProt Q7Z2W7); conditions: shift from 32 mV; cited from earlier work
KCNQ2(Y284C) = target: T2, KCNQ2(Y284C) (Rattus norvegicus, UniProt O88943, Y284C); test: Whole-cell recording of KCNQ2(Y284C) BFNC mutant in CHO cells; assay type: cell-based; conditions: retigabine
T2 construct: expressed in transfected cells; host or cells: CHO cells, transient
Method: (§2) FIG. 11. ZnPy effects on BFNC mutant channels expressed in CHO cells. A. whole-cell currents of KCNQ2(R207W), KCNQ2(Y284C), and KCNQ2(A306T) were recorded in the absence (left) and presence (right) of 10 μM ZnPy, Vh was −80 mV, in 10 mV voltage steps from −70 mV to +50 mV. B. a histogram plotting potentiation effects on KCNQ2 wild type (wt) and BFNC mutants (R207W, Y284C and […]) by ZnPy (filled box) and retigabine (open box) (n≧4, * p<0.001, ** p<0.05).
(§3) Mutagenesis—Starting from KCNQ cDNAs, the KCNQ2 point mutants were constructed by recombinant PCR and verified by sequencing.
as §1, with “Series resistance compensation was also used and set to 60-80%.” left out

KCNQ2(R207W) = target: T3, KCNQ2(R207W) (Rattus norvegicus, UniProt O88943, R207W); test: Whole-cell recording of KCNQ2(R207W) BFNC mutant in CHO cells; assay type: cell-based; conditions: retigabine
T3 construct: expressed in transfected cells; host or cells: CHO cells, transient
Method: as §2, §3
as §1, with “Series resistance compensation was also used and set to 60-80%.” left out

KCNQ2(A306T) = target: T4, KCNQ2(A306T) (Rattus norvegicus, UniProt O88943, A306T); test: Whole-cell recording of KCNQ2(A306T) mutant in CHO cells; assay type: cell-based; conditions: retigabine
T4 construct: expressed in transfected cells; host or cells: CHO cells
Method: FIG. 9. KCNQ2 point mutants selectively lose ZnPy sensitivity. […] Each mutation site was indicated based on the predicted transmembrane regions. Dashed line indicates the potentiation level of wt KCNQ2 channel in the absence of ZnPy. […] C. Modeling of the S5-pore-S6 region of KCNQ2.
as §2, §3, §1

Sequence of TRPM8 (Q7Z2W7 whole entry, species assumed): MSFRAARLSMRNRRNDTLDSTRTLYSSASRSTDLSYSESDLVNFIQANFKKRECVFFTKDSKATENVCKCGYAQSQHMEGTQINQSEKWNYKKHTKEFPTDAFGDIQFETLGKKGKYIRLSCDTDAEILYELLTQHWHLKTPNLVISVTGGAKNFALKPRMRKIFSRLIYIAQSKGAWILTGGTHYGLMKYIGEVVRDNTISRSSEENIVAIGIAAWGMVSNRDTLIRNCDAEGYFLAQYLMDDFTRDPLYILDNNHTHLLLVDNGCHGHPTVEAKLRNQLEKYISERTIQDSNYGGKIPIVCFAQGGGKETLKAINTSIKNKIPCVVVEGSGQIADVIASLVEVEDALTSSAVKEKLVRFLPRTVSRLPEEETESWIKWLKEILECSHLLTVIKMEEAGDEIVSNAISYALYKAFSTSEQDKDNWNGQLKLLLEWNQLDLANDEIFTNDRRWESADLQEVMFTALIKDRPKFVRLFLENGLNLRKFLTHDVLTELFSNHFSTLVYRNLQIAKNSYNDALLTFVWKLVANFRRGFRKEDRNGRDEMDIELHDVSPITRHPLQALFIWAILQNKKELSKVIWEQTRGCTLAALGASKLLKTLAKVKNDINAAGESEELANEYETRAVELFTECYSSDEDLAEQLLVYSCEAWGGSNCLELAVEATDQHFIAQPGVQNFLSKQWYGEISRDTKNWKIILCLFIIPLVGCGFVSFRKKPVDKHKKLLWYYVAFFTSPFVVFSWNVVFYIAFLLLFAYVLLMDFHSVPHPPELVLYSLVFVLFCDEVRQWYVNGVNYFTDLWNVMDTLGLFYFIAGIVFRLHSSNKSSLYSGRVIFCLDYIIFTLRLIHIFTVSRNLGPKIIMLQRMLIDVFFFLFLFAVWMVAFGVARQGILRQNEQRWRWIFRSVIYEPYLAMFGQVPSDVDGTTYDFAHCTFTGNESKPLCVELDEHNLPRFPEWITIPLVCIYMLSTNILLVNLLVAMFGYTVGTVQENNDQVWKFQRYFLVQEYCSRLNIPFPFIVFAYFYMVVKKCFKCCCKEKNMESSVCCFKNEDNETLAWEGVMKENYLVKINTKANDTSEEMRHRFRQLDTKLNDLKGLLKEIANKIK

Compound: O=S(=O)([O-])[O-].[Zn+2] [ZnSO4]
- effect on KCNQ2 current amplitude of metal salt added to sodium pyrithione perfusion (KCNQ2 [1]): marked increase in current amplitude

Compound: CNC1=Nc2ccc(Cl)cc2C(c2ccccc2)=[N+]([O-])C1 [chlordiazepoxide]
- increase of punished lever pressing [2]: > 50%

Compound: O=C1N(c2ccccc2)c2ccccc2C1(Cc1ccncc1)Cc1ccncc1 [linopirdine]
- effect on single channel activity (KCNQ2 [3]): fully blocked
- effect on ZnPy-induced hyperpolarization (hippocampal neurons): completely abolished the hyperpolarization of membrane potential
- effect on KCNQ2 current (KCNQ2 [1]; 30 μM linopirdine, +50 mV): rapid inhibition

Compound: Oc1c(I)cc(I)c2cccnc12 [5,7-diiodo-8-hydroxyquinoline]
- potentiation of KCNQ2 current amplitude by zinc ionophores (KCNQ2 [1]; +50 mV): None displayed any potentiation effect on current amplitude

Compound: O=S(=O)([O-])[O-].[Cu+2] [CuSO4]
- effect on KCNQ2 current amplitude of metal salt added to sodium pyrithione perfusion (KCNQ2 [1]): did not induce any potentiation

Compound: [Cl][Cd][Cl] [CdCl2]
- effect on KCNQ2 current amplitude of metal salt added to sodium pyrithione perfusion (KCNQ2 [1]): did not induce any potentiation

Compound: CC[N+](CC)(CC)CC [TEA, tetraethylammonium]
- effect on KCNQ2 current (KCNQ2 [1]): completely blocked

Compound: [Na+].[O-][n+]1ccccc1[S-] [sodium pyrithione]
- effect on KCNQ2 current amplitude (KCNQ2 [1]): no change in current amplitude

Compound: CC1CCC(C(C)C)C(O)C1 (centres unmarked) [Menthol]
- V1/2 after menthol binding (TRPM8): −31 mV

Compound: [Zn+2] [Zn^2+]
- effect on KCNQ2 channel, zinc ion alone (KCNQ2 [1]): cannot induce any detectable effect

Compound: CCOC(=O)Nc1ccc(NCc2ccc(F)cc2)cc1N [Retigabine, retigabine]
- current potentiation (KCNQ2(Y284C)): < 50%
- current potentiation (KCNQ2(R207W)): < 50%
- current potentiation (KCNQ2(A306T)): < 50%

Compound: Oc1ccc(N=Nc2ccccn2)c(O)c1 [PAR, 4-(2)-(pyridylazo) resorcinol]
- effect on potentiation induced by sodium pyrithione plus ZnSO4 (KCNQ2 [1]; 100 μM PAR): abolished
- effect on KCNQ2 channel activity, compound alone (KCNQ2 [1]; PAR itself): had no effect on KCNQ2 channel activity
